The text below walks through data of paper PMC12797228 (ACS Infectious Diseases, 2025).

pEC50, pIC50: −log10 of the molar value. In brackets after ≈: the same amount, converted by molar mass. Several values for one entry are separate records, joined by “and”; a condition that tells them apart may be missing. Equal values may be shown once. Read-outs that look alike come from different tables or passages of the source.

Data set [1] concerns 30-strain panel of B. anthracis. The data set can be described thus: microbe, parasite or virus in culture. The class given is cell-based, Bacillus anthracis. Particulars: for MIC50 / MIC90: Bacillus anthracis.
For data set [2], the target named is T1, wild-type B. anthracis gyrase (Bacillus anthracis, UniProt A0A6H3A7B1+Q9X3Y6). The data set can be described thus: biochemical. Particulars: EC50 (concentration that induces 50% maximal DNA cleavage).
T1 sequence (A0A6H3A7B1 1-823): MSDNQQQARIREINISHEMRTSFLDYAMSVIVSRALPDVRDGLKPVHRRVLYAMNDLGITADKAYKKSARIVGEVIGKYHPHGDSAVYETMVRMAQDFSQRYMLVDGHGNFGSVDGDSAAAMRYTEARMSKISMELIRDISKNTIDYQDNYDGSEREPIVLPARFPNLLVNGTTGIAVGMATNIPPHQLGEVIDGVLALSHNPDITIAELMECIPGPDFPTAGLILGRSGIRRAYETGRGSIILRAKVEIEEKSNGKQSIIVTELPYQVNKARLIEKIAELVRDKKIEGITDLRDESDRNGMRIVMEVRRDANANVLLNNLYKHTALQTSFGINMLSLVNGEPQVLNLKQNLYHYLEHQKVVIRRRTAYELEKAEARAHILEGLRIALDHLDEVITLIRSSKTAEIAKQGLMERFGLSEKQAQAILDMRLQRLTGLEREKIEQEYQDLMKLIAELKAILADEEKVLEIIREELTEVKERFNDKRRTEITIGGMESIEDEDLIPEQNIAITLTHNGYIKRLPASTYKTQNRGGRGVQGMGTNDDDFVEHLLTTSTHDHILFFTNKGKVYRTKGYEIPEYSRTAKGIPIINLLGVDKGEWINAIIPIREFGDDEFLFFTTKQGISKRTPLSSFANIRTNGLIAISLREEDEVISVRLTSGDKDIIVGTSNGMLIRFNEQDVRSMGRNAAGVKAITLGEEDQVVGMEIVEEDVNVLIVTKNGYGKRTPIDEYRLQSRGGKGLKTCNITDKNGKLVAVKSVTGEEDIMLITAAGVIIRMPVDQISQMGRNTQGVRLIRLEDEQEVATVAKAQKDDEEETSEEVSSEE
T1 sequence (Q9X3Y6 whole entry): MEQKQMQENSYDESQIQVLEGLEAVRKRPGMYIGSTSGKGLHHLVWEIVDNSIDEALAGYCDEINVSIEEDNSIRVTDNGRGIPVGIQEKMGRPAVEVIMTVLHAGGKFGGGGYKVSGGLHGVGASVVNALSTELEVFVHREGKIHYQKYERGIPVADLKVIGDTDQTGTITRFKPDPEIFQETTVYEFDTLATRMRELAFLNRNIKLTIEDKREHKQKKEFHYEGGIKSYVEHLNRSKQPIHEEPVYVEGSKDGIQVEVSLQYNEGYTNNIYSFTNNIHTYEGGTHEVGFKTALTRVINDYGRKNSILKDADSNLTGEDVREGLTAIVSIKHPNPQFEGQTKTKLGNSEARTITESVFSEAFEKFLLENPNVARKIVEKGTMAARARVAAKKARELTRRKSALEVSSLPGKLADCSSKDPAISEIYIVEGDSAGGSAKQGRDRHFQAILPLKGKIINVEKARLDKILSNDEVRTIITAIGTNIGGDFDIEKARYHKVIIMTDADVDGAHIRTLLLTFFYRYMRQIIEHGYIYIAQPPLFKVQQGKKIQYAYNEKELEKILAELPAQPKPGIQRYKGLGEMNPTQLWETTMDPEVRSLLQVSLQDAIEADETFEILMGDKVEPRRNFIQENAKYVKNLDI
Data set [3] concerns the target T1, wild-type B. anthracis gyrase. Description: biochemical. The following applies: IC50, inhibition of DNA supercoiling.
Data set [4] addresses T2, wild-type B. anthracis topoisomerase IV (Bacillus anthracis, UniProt A0A6H3AG07+A0AAC8SCF4). Description: biochemical. Particulars: EC50, DNA cleavage.
Data set [5] concerns the target T2, wild-type B. anthracis topoisomerase IV. The data set can be described thus: biochemical. The following applies: IC50, inhibition of DNA decatenation.
The test system of data set [6] is B. anthracis (Ames strain). Set-up: species or system BALB/c mice. The following applies: mouse, in vivo.
The conditions of data set [7]: female, BALB/c, mouse, in vivo.
For data set [8] the following is noted: mouse, in vivo, po, 100 mg/kg.
The next data set is described as follows: in vivo. The following applies: female, BALB/c, mouse.
The next data set can be described thus: in vitro. Particulars: plasma.
A further data set has as its system B. anthracis. Particulars: rabbit, in vivo; cited from earlier work.

T2 sequence (A0A6H3AG07 1-807): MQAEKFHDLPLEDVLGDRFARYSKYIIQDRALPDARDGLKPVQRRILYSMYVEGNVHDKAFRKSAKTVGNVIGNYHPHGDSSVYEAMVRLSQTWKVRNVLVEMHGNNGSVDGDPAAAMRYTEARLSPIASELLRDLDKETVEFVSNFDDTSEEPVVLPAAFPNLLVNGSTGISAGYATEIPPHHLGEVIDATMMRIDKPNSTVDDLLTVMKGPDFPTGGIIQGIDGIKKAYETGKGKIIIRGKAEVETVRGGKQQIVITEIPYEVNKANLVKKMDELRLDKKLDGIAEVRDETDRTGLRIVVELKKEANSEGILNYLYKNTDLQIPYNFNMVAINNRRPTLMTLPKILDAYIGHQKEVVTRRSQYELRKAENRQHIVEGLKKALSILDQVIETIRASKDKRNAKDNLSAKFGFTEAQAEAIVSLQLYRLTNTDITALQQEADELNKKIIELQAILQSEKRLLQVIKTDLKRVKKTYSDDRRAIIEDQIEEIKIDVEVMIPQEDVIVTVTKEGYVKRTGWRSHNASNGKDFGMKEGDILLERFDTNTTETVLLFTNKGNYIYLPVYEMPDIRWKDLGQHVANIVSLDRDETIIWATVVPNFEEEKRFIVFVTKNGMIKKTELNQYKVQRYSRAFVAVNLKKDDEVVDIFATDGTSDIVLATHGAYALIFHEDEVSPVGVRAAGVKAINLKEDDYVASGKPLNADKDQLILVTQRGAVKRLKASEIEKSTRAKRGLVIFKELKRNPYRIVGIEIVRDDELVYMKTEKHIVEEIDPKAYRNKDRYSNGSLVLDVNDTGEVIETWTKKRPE
T2 sequence (A0AAC8SCF4 1-654): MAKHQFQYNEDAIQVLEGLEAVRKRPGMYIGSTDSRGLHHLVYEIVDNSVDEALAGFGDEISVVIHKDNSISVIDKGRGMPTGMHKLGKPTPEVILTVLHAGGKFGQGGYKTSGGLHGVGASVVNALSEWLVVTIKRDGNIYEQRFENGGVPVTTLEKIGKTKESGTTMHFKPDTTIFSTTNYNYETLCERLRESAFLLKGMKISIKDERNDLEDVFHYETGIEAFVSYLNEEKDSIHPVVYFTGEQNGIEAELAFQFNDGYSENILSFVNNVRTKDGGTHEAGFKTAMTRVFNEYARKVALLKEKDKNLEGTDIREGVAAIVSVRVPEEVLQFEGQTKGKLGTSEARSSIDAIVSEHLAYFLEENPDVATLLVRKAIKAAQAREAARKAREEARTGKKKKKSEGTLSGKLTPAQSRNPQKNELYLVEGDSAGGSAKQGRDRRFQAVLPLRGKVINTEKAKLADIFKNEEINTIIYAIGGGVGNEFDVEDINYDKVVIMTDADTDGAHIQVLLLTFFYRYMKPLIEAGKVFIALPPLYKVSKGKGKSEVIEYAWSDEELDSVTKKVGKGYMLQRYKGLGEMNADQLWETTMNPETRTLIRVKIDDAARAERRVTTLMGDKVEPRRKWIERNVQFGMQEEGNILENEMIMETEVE

Broadly, the pEC50 is the negative decadic logarithm of the EC50, by convention in mol/L. The low end stands for a high EC50, the high end for a low EC50. In general, pIC50 refers to −log10 of the IC50, conventionally taken in molar units. The low end stands for a large IC50, the high end for a small IC50. One may read the half-life as how long it takes for the measured level to halve. Lower therefore signals fast loss. The term bioavailability denotes dose-corrected exposure relative to a reference, in per cent. The term AUC(0-inf) denotes total exposure, with the tail of the curve extrapolated. A lower AUC(0-inf) goes with less exposure. The AUC(0-t) is exposure summed from dosing to a finite time, without extrapolation to infinity. Read a high AUC(0-t) as high exposure. In general, Cmax refers to the maximum level reached in the sampled fluid or tissue. The term Tmax denotes the time at which the peak concentration occurs. A word on the fraction unbound: it is free concentration divided by total concentration. Read a high fraction unbound as weak binding. `COc1ccc2ncc(F)c(C[C@H](O)[C@H]3OC[C@H](NCc4cnc5c(n4)NC(=O)CO5)CO3)c2n1` [OSUAB-0284, 6-(((trans-2-((S)-2-(3-fluoro-6-methoxy-1,5-naphthyridin-4-yl)-1-hydroxyethyl)-1,3-dioxan-5-yl)amino)methyl)-2H-pyrazino[2,3-b][1,4]oxazin-3(4H)-one]: in data set [1], the “Range of MIC values” is at most 0.03 to 4 µg/mL, the MIC50 stood at 0.06 µg/mL (≈ 0.123 µM) and the MIC90 came to 0.25 µg/mL (≈ 0.514 µM). Also, in data set [2], the pEC50 was 6.15 and ~6.15. The pIC50 in data set [3] is ~5.20 and 5.20. In addition, the pEC50 in data set [4] was 7.40 and ~7.40. The pIC50 in data set [5] is ~7.00 and 7.00. Also, in [6], the “Lung total bacterial burden and spore counts compared with the ciprofloxacin group” value was “No significant differences”; the Survival was 100% and 90% and 90–100%. Besides, in [7], the “dose-corrected exposure, higher vs lower dose group” value stood at 1.5 fold. In addition, in data set [7] (iv, 10 mg/kg), the “Lung AUC0-last” value is recorded as 4,830 ng*h/mL and the “Lung AUCinf” value was 5,033 ng*h/mL. Besides, in data set [7] (po, 10 mg/kg), the “Lung AUC0-last” value is 3,314 ng*h/mL and the “Lung AUCinf” value is reported as 3,615 ng*h/mL. In data set [7] (po, 50 mg/kg), the “Lung AUC0-last” value is listed as 37,227 ng*h/mL and the “Lung AUCinf” value is listed as 44,292 ng*h/mL. Besides, the “Adverse events or cage-side observations” value in data set [8] is listed as “No adverse events or cage-side observations were noted”. Further, in the data set “in vivo”, the Kp lay within 0.36 to 0.53 and the half-life is 2.6 h. Also, in the data set “in vivo” (10 mg/kg), the bioavailability worked out at 80.6%. In addition, in “in vivo” (iv, 10 mg/kg), the AUC(0-inf) was 11400 ng·h/mL, the AUC(0-t) stood at 10800 ng·h/mL, the highest level (Cmax) was 17600 ng/mL and the Tmax is 0.0833 h. For the same compound, the half-life in the data set “in vivo” (iv, 10 mg/kg) is 2.6 h. Further, in “in vivo” (po, 10 mg/kg), the AUC(0-inf) is 9160 ng·h/mL, the AUC(0-t) is 8470 ng·h/mL, the Cmax was 6280 ng/mL and the Tmax is 0.25 h. This compound gave a half-life in “in vivo” (po, 10 mg/kg) of 2.6 h. In the data set “in vivo” (po, 50 mg/kg), the AUC(0-inf) came to 70200 ng·h/mL, the AUC(0-t) was 63000 ng·h/mL, the Cmax amounted to 50300 ng/mL and the Tmax is 0.25 h. In “in vivo” (po, 50 mg/kg), the half-life is 2.6 h. The same compound showed a fraction unbound in the data set “in vitro” of 0.31.
In the case of `O=c1ccc2ncc(=O)n3c2n1C[C@H]3CN1CCC(NCc2cc3c(cn2)OCCC3)CC1` [Gepotidacin, gepotidacin, reference compound], in data set [1], the “Range of MIC values” lay in the range of 0.12 to 8 µg/mL, the MIC50 amounted to 0.5 µg/mL (≈ 1.11 µM) and the MIC90 is 0.5 µg/mL (≈ 1.11 µM). Also, the pEC50 in [2] was 6.10 and ~6.10. Moreover, in [3], the pIC50 was ~4.63 and 4.63. Besides, the pIC50 in data set [5] was ~6.70 and 6.70. The “Rabbits that survived for at least 30 days” value in the data set on B. anthracis was “Ten out of 11”.
Regarding `O=C(O)c1cn(C2CC2)c2cc(N3CCNCC3)c(F)cc2c1=O` [Ciprofloxacin, ciprofloxacin], the pIC50 was ~3.93 and 3.93 in data set [3]; ~3.75 and 3.75 in data set [5]. In addition, the “Mice that survived to study termination on day 30 (of 10)” value in data set [6] is given as 10.
